According to ChEMBL document CHEMBL1140364, “Anxiolytic effects of benzalphthalides” (2005):

Experiments:
Type in all cases: functional
Mus musculus [1] = experiment: Total number of entries into the open and closed arms of the maze for anxiolytic activity in ICR mouse through elevated plus test after intraperitoneal injection of 15 mg/kg
Mus musculus [2] = experiment: Number of entries into the open arms of the maze for anxiolytic activity in ICR mouse through elevated plus maze test after intraperitoneal injection of 15 mg/kg
Mus musculus [3] = experiment: Number of entries into the closed arms of the maze for anxiolytic activity in ICR mouse through elevated plus test after intraperitoneal injection of 15 mg/kg
Mus musculus [4] = experiment: Percentage number of entries into the open arms of the maze for anxiolytic activity in ICR mouse through elevated plus test after intraperitoneal injection of 15 mg/kg
Mus musculus [5] = experiment: Time spent into the open arms of the maze for anxiolytic activity in ICR mouse through elevated plus maze test after intraperitoneal injection of 15 mg/kg

| Structure (SMILES) | Total number of entries (Mus musculus [1]) | No. of entries (Mus musculus [2]) | No. of entries (Mus musculus [3]) | No. of entries (Mus musculus [4]) | Spent time (Mus musculus [5]) |
| --- | --- | --- | --- | --- | --- |
| COc1ccc(/C=C2\OC(=O)c3cc([N+](=O)[O-])c([N+](=O)[O-])cc32)cc1 | 22.2 | 11.7 | 10.5 | 51.7% | 0.0359 h |
| CCCCCCCCCCCC(=O)OCCOCC(OCCO)C1OCC(OCCO)C1OCCO (stereo not given) | 18.5 | 9.6 | 8.9 | 51.2% | 0.034 h |
| CS(=O)(=O)c1ccc(/C=C2\OC(=O)c3ccccc32)cc1 | 16.4 | 10.6 | 5.6 | 69.9% | 0.052 h |
| CN1C(=O)CN=C(c2ccccc2)c2cc(Cl)ccc21 [DIAZEPAM] | 19.5 | 15.8 | 3.7 | 82% | 0.064 h |
| COc1cc(/C=C2\OC(=O)c3ccccc32)cc(OC)c1OC | 17.3 | 8.3 | 9 | 44.8% | 0.0296 h |
| C=C(C)[C@@H]1[C@H]2OC(=O)[C@@H]1[C@]1(O)C[C@H]3OC34C(=O)O[C@H]2[C@@]41C.CC(C)(O)[C@@H]1[C@H]2OC(=O)[C@@H]1[C@]1(O)C[C@H]3OC34C(=O)O[C@H]2[C@@]41C (stereo not given in full) [PICROTOXIN] | 11.8 | 2.5 | 9.4 | 19% | 0.00739 h |
| COc1ccc(/C=C2\OC(=O)c3ccccc32)cc1 | 20.1 | 13 | 7.1 | 64.1% | 0.0493 h |
| O=C1O/C(=C\c2ccc(Cl)cc2)c2ccccc21 | 16.5 | 8 | 8.5 | 55.8% | 0.0444 h |
| C[S+]([O-])c1ccc(/C=C2\OC(=O)c3ccccc32)cc1 (stereo not given) | 19.8 | 10.8 | 9 | 55.6% | 0.0427 h |
| CSc1ccc(/C=C2\OC(=O)c3ccccc32)cc1 | 17.7 | 7.9 | 9.9 | 49.5% | 0.0363 h |
| COc1ccc(/C=C2\OC(=O)c3ccc(C(N)=O)cc32)cc1 | 24 | 13 | 11.5 | 50.2% | 0.0348 h |
| O=C1O/C(=C\c2ccc3c(c2)OCO3)c2ccccc21 | 20.2 | 11.2 | 9 | 54.4% | 0.0418 h |
| O=C1O/C(=C\c2ccc([N+](=O)[O-])cc2)c2ccccc21 | 16.3 | 9 | 7.3 | 57.2% | 0.0441 h |
